Laboratory results published in publication PMC7931226 (Pharmacology Research & Perspectives, 2021).

Columns and labels:
[1] = molecular target: T1, Bcrp in the gut and biliary compartments (Rattus norvegicus, UniProt Q80W57); assay: Oral PK of BCRP substrates with constant infusion of elacridar; type: in vivo; conditions: oral substrate with constant infusion of elacridar
T1 sequence (Q80W57 1-657): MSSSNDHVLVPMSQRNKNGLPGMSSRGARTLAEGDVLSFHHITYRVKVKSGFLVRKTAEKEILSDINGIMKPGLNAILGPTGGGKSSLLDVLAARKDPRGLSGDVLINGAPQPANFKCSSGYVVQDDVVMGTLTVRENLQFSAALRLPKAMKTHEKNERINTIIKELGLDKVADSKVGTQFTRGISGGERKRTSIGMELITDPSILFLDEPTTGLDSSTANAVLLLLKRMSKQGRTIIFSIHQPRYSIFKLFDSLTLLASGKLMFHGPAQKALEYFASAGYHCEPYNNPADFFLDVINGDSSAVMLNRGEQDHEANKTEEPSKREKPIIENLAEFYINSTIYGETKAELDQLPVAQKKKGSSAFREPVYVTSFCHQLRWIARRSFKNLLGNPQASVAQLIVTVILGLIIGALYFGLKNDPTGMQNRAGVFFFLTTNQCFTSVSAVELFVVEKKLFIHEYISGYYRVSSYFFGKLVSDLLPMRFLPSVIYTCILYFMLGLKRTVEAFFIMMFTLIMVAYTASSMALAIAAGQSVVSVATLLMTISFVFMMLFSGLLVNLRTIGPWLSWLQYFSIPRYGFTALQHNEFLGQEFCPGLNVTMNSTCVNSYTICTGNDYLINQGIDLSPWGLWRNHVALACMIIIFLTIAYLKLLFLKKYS

[2] = system: P-gp and Bcrp (rat, blood-brain barrier); assay: In vivo efflux ratio; parameters: species or system Sprague Dawley rats; conditions: Sprague Dawley, intravenous, with elacridar 8.9 mg/hr/kg, 4.5-hour constant infusion
[3] = system: BCRP; conditions: BCRP knockout; cited from earlier work
[4] = Elacridar plasma and brain exposure, constant infusion in rats; type: in vivo, Sprague Dawley rats; conditions: rat; for concentration at 4 h: Sprague Dawley, intravenous
[5] = system: Caco-2 cells; conditions: range of substrates, well documented (ref not given); cited from earlier work
[6] = system: MDCK-BCRP cells; conditions: range of substrates, well documented (ref not given); cited from earlier work
[7] = Rat plasma protein binding; type: in vitro ADME
[8] = Tolerability in rats; type: in vivo
[9] = Valspodar plasma and brain exposure, constant infusion or IV bolus in rats; type: in vivo, Sprague Dawley rats; conditions: rat; for concentration at 4 h: Sprague Dawley, plasma, intravenous
[10] = system: rat P-gp at the BBB; assay: In vivo efflux ratio; parameters: species or system Sprague Dawley rats; conditions: constant infusion, inhibition of P-gp at the BBB
[11] = system: P-gp; conditions: ref 26 (Smith et al, 1998); cited from earlier work
[12] = constant infusion, based upon 3x the half-life

For CC[C@@]1(O)C(=O)OCc2c1cc1n(c2=O)Cc2cc3c(CN(C)C)c(O)ccc3nc2-1 [topotecan], the “clearance (calculated t1/2 and liver concentrations)” value [1] was “not impacted”.

In the case of O=C(O)c1cc(/N=N/c2ccc(S(=O)(=O)Nc3ccccn3)cc2)ccc1O [sulfasalazine], the “increase in liver concentrations” value ([1]; 8 hours post-dose) is reported as 4 fold and the half-life ([1]; up to 8 hours post-dose) is reported as “significant increase”.

In the case of COc1ccc(Cl)cc1C(=O)NCCc1ccc(S(=O)(=O)NC(=O)NC2CCCCC2)cc1 [glyburide], the efflux ratio at 4 h [2] is given as 5.4 and the “increase in placental tissue concentration” value [3] is given as 2.5 fold.

With COc1cc2c(cc1OC)CN(CCc1ccc(NC(=O)c3cccc4c(=O)c5cccc(OC)c5[nH]c34)cc1)CC2 [elacridar, 9,10‐dihydro‐5‐methoxy‐9‐oxo‐N‐[4‐[2‐(1,2,3,4‐tetrahydro‐6,7‐dimethoxy‐2‐isoquinolinyl)ethyl]phenyl]‐4‐acridine‐carboxamide] the concentration at 4 h ([4]; brain, 8.9 mg/hr/kg, total drug in brain, elacridar 8.9 mg/hr/kg constant infusion) was > 45000 ng/g, the concentration at 4 h ([4]; plasma, 8.9 mg/hr/kg, Elacridar (total plasma), elacridar 8.9 mg/hr/kg, 4.5-hour constant infusion, mean) was > 2000 ng/mL and the concentration at 4 h ([4]; plasma, 8.9 mg/hr/kg, steady state free plasma, elacridar 8.9 mg/hr/kg constant infusion (maximum)) was 35 to 70 nM. For the same compound, the concentration at 4 h ([4]; plasma, free plasma exposure, range over doses, 0.009 to 8.9 mg/hr/kg constant infusion, 1.5% rat plasma free fraction) was 0.025 to 49 ng/mL, the concentration at 4 h ([4]; plasma, total plasma exposure (mean), range over doses, 0.009 to 8.9 mg/hr/kg constant infusion over 4.5 hours) was 1.6 to 3270 ng/mL and the “time to steady state in plasma” value [4, 12] was ≤ 2.5 h. For the same compound, the IC50 [5] was 600 nM, the IC50 [6] was 300 nM and the “free in rat plasma (free fraction)” value ([7]; well known (ref 27), confirmed in-house) was 1.5%. For the same compound, the side effects ([8]; any study conditions up to 8-hour duration) was “no negative side effects were observed”.

In the case of C/C=C/C[C@@H](C)C(=O)[C@H]1C(=O)N[C@@H](C(C)C)C(=O)N(C)CC(=O)N(C)[C@@H](CC(C)C)C(=O)N[C@@H](C(C)C)C(=O)N(C)[C@@H](CC(C)C)C(=O)N[C@@H](C)C(=O)N[C@H](C)C(=O)N(C)[C@@H](CC(C)C)C(=O)N(C)[C@@H](CC(C)C)C(=O)N(C)[C@@H](C(C)C)C(=O)N1C [valspodar], the concentration at 4 h ([9]; 8 mg/hr/kg, free plasma exposure, maximum soluble dose 8 mg/hr/kg constant infusion) is reported as 2140 nM, the concentration at 4 h ([9]; free plasma exposure (mean), range over doses, 0.09 to 8 mg/hr/kg constant infusion over 4.5 hours, rat plasma binding = 92%) is reported as 32 to 2590 ng/mL and the “time to steady state in plasma” value [9, 12] is reported as ≤ 2.5 h. For the same compound, the “minimal (lowest) efficacious dose” value [10] was 0.9 mg/h/kg, the rat plasma binding ([7]; mean) was 92% and the side effects ([8]; IV bolus doses at 10 mg/kg or higher and repeat doses of 5 mg/kg or higher with less than 2 h between doses) was “lethargy and increased urination”. For the same compound, the side effects ([8]; constant infusion 0.9 mg/hr/kg and 2.7 mg/hr/kg up to 8 hours) was “No side effects were observed”, the side effects ([8]; constant infusion, highest dose 8 mg/hr/kg) was “some instances were observed” and the “decrease in in vitro efficacy from serum binding” value [11] was 23 fold.
